Experimental data as given in patent publication US20140323533A1, “COMBINATION OF ANTI-CTLA4 ANTIBODY WITH TUBULIN MODULATING AGENTS FOR THE TREATMENT OF PROLIFERATIVE DISEASES” (BRISTOL-MYERS SQUIBB COMPANY, priority 2013, published 2014).
Several values for one entry are separate records, joined by “and”; a condition that tells them apart may be missing. Identical values can stand only once.

Tests used:
SA1N fibrosarcoma = experiment: Antitumor activity in the SA1N fibrosarcoma tumor model; type: in vivo, mouse; conditions: for % TGI: IP every 4 days x3; for CR/Total # mice: complete regressions; for T-C: target size 500 mm^3
Method: (§1) Tumor cell lines were maintained in vitro. Treatments were initiated when the subcutaneous tumors reached a median size between 100-200 mm^3 (established model) or prior to detection (initiation model). Tumors were measured twice weekly and tumor size (mm^3) was calculated as (length×width^2)/2. Body weights were obtained weekly. The tumor models used in these studies are outlined in Table 1.
(§2) The dose levels, routes and dosing schedules are indicated for each particular study described below. Antibodies and chemotherapeutic agents were administered intraperitoneally (i.p.). Each treatment regimen consisted of a cohort of eight to ten mice. Anti-tumor activity, defined as percentage tumor growth inhibition, was calculated as follows:
% Tumor Growth Inhibition=100−[(Tt/To)/(Ct/Co)]/100−(Ct/Co)
(§3) In addition, another parameter used to define efficacy was to determine time to tumor progression to target size (T−C), where the time (days) for the median tumor size of control (C) mice to reach target size was subtracted to the time for median tumor size of treated (T) mice to reach target size.
SA1N fibrosarcoma is an inherently immunogenic tumor line which is sensitive to the effects of CTLA-4 blockade. Two studies were conducted to determine the effect of CTLA-4 blockade in combination with ixabepilone or paclitaxel in this tumor model (see Table 1). Animals were implanted with SA1N cells subcutaneously and treatments were initiated when tumors reached 100-150 mm^3. Experimental groups consisted of cohorts of 8 mice. Ixabepilone, paclitaxel and CTLA-4 mab were administered intraperitoneally (IP) every 4 days for 3 doses. In the combination groups, CTLA-4 mab was administered one day after each chemotherapy treatment.

EMT-6 mammary carcinoma = experiment: Antitumor activity in the EMT-6 mammary tumor model; type: in vivo, mouse; conditions: for % Tumor-free Mice / T-C: Study 27; for T-C: treatment from day 3/4, every 4 days x3 IP, ixabepilone 8, paclitaxel 24, CTLA-4 mAb 20 mg/kg
Method: as §1
as §2, with “follows: […]” for “follows:”
as §3

M109 lung carcinoma [1] = experiment: Antitumor activity in the M109 lung carcinoma tumor model; type: in vivo, mouse; conditions: for % Tumor-Free Mice after Initial Tumor Implantation: Study 40, footnote: percentage of animals that develop tumors following implantation on Day 0
Method: as §1
as §2, with “follows: […]” for “follows:”
The antitumor effects of CTLA-4 mAb and microtubule-stabilizing agents were also studied in the M109 lung carcinoma model, a tumor line which is not sensitive to the effect of CTLA-4 blockade. In these studies treatments with chemotherapeutic agents were initiated when tumors were palpable, on day 3 after tumor implantation. This regimen was selected to produce a measurable antitumor effect, which was not observed when treatments were initiated at a later time. As in the studies conducted in the SA1N and EMT-6 tumor lines, CTLA-4 mAb was dosed one day after treatment with chemotherapy.

CT26 colon carcinoma = experiment: Antitumor activity in the CT26 colon tumor model; type: in vivo, mouse; conditions: for % Complete Regressions/Total # mice: IP every 4 days x3, ixabepilone 8, paclitaxel 24, CTLA-4 mAb 20 mg/kg; for antitumor effect in words: text and FIG. 2
Method: as §1
as §2, with “follows: […]” for “follows:”
Next, the antitumor effects of CTLA-4 mAb and nmicrotubule-stabilizing agents were studied in a model not sensitive to ixabepilone or paclitaxel, the CT26 colon carcinoma model.

M109 lung carcinoma [2] = experiment: M109 tumor rechallenge of tumor-free mice; type: in vivo, mouse
From the text: To determine whether the combination of CTLA-4+ixabepilone produced a memory immune response able to reject a secondary tumor challenge, animals free of tumors by day 97 were re-challenge with a lethal M109 cell inoculum.

[3] = system: SA1N fibrosarcoma, M109 lung carcinoma, EMT-6 mammary carcinoma, CT-26 colon carcinoma and B16 melanoma; experiment: Efficacy studies across murine tumor lines (summary); type: in vivo, mouse; conditions: animals with complete regressions rechallenged with lethal dose of tumor cells
Method: Efficacy studies were conducted in 3 different tumor lines implanted in immunocompetent mice: SAlN fibrosarcoma, MI09 lung carcinoma and EMT-6 mammary carcinoma. […] For the combination group, anti-CTLA-4 mAb was administered one day after each ixabepilone treatment. In selected studies, animals with complete tumor regressions were rechallenged with a lethal dose of tumor cells to determine the level of immune protection. In other studies, the combined efficacy of CTLA-4 mAb+ixabepilone was compared directly with CTLA-4 InAb+paclitaxel.
The effect of an anti-mouse CTLA-4 blocking antibody, the murine homolog of ipilimumab, was evaluated in multiple murine tumor models in combination with the microtubule-stabilizing agents paclitaxel (TAXOL®), and ixabepilone (IXEMPRA®). Efficacy studies were conducted in 5 different tumor lines: SA1N fibrosarcoma, M109 lung carcinoma, EMT-6 mammary carcinoma, CT-26 colon carcinoma and B16 melanoma. Ixabepilone, paclitaxel and CTLA-4 mAb were administered at their optimal dose and schedule: ixabepilone, 8 mg/kg; paclitaxel, 24 mg/kg, CTLA-4 mAb, 20 mg/kg every 4 days for 3 doses. For the combination group, anti-CTLA-4 mAb was administered one day after each ixabepilone or paclitaxel treatment. In selected studies, animals with complete tumor regressions were rechallenged with a lethal dose of tumor cells to determine the level of immune protection.

[4] = system: A2780, HCT116, LS174T, HCT116/VM46, Pat-7, A2780Tax, Pat-21 tumor models; experiment: Preclinical pharmacology studies of Compound 1 in tumor models; type: in vivo
[5] = Study 17, calculated Day 33, ixabepilone 8, paclitaxel 24, CTLA-4 mAb 20 mg/kg
[6] = Study 17, study terminated day 116

5beta,20-Epoxy-1,2alpha,4,7beta, 10beta, 13alpha-hexahydroxytax-11-en-9-one 4,10-diacetate 2-benzoate 13-ester with (2R,3S)—N-benzoyl-3-phenylisoserine [Paclitaxel]
% TGI (SA1N fibrosarcoma; Study 11, calculated Day 34, paclitaxel 24, CTLA-4 mAb 20 mg/kg): 88%
CR/Total # mice (SA1N fibrosarcoma; Study 11): 3/8
T-C (SA1N fibrosarcoma; Study 11, study terminated day 52): 13 days
% TGI (SA1N fibrosarcoma; [5]): 0%
CR/Total # mice (SA1N fibrosarcoma; Study 17): 0/8
T-C (SA1N fibrosarcoma; [6]): 0 days
antitumor effect in words (SA1N fibrosarcoma; both SA1N studies): variable effect
antitumor effect in words (EMT-6 mammary carcinoma): ineffective
% Tumor-free Mice (EMT-6 mammary carcinoma): 0%
T-C (EMT-6 mammary carcinoma): 0 days
antitumor effect in words (M109 lung carcinoma [1]; FIG. 1): did not produce antitumor effects
% Tumor-Free Mice after Initial Tumor Implantation (M109 lung carcinoma [1]): 100%
% Complete Regressions/Total # mice (CT26 colon carcinoma): 0/10
antitumor effect in words (CT26 colon carcinoma): neither paclitaxel or ixabepilone produced any measurable antitumor activity

C/C(=C\c1csc(C)n1)[C@@H]1C[C@@H]2O[C@]2(C)CCC[C@H](C)[C@H](O)[C@@H](C)C(=O)C(C)(C)[C@@H](O)CC(=O)N1 [Ixabepilone, (1S,3S,7S,10R,11S,12S,16R)-7,11-dihydroxy-8,8,10,12,16-pentamethyl-3-[(1E)-1-methyl-2-(2-methyl-4-thiazolyl)ethenyl]-17-oxa-4-azabicyclo[14.1.0]heptadecane-5,9-dione]
CR/Total # mice, percentage in parentheses (% CR) (SA1N fibrosarcoma; Study 9): (37.5) %
% TGI (SA1N fibrosarcoma; Study 9, calculated Day 36, ixabepilone 8 mg/kg, CTLA-4 mAb 20 mg/kg): 92%
CR/Total # mice (SA1N fibrosarcoma; Study 9): 3 out of 8 and 3/8
T-C (SA1N fibrosarcoma; Study 9, study terminated day 39): 11 days
CR/Total # mice, percentage in parentheses (% CR) (SA1N fibrosarcoma; Study 17): (0) %
% TGI (SA1N fibrosarcoma; [5]): 83%
CR/Total # mice (SA1N fibrosarcoma; Study 17): 0/8
T-C (SA1N fibrosarcoma; [6]): 7 days
% Tumor-free Mice (EMT-6 mammary carcinoma): 20%
T-C (EMT-6 mammary carcinoma): 19 days
treated animals in which tumor growth was inhibited (M109 lung carcinoma [1]): 50%
% Tumor-Free Mice after Initial Tumor Implantation (M109 lung carcinoma [1]): 50%
% mice developing tumors after rechallenge (M109 lung carcinoma [2]; Study 40, footnote: percentage of mice that develop tumors after tumor rechallenge on Day 95): 75%
mice that developed tumors after rechallenge, percent (M109 lung carcinoma [2]; tumor-free mice re-challenged with lethal M109 inoculum): 80%
mice that developed tumors after rechallenge (M109 lung carcinoma [2]; tumor-free mice re-challenged with lethal M109 inoculum, count): 4 out of 5
% Complete Regressions/Total # mice (CT26 colon carcinoma): 0/10
antitumor effect in words (CT26 colon carcinoma): neither paclitaxel or ixabepilone produced any measurable antitumor activity
protection against tumor rechallenge in words [3]: only partial protection

C/C(=C\c1csc(C)n1)[C@@H]1C[C@@H]2O[C@]2(C)CCC[C@H](C)[C@H](O)[C@@H](C)C(=O)C(C)(C)[C@@H](O)CC(=O)N1 (relative stereo) [Compound 1, [1S-[1R*,3R*(E),7R*,10S*,11R*,12R*,16S*]]-7,11-dihydroxy-8,8,10,12,16-pentamethyl-3-[1-methyl-2-(2-methyl-4-thiazolyl)ethenyl]-4-aza-17-oxabicyclo[14.1.0]heptadecane-5,9-dione]
oral efficacy in words ([4]; oral vs parenteral administration): orally efficacious
antitumor activity in words ([4]; paclitaxel-sensitive and paclitaxel-resistant human tumor models): very impressive and broad spectrum of antitumor activity
